# Results: patent publication US20090305338A1, “Plant cell lines established from the medicinal plant veratrum californicum” (priority 2006, published 2009)
# What was measured:
# [1] = tested on: Veratrum californicum embryos; test: Embryogenic callus induction from mature embryos (% of embryogenesis); format: cell-based
# Experimental: (§1) Seeds of Veratrum californicum Durand were peeled, rinsed with 94% ethanol and surface sterilized with 1% (v/v) sodium hypochlorite supplemented with a few drops of Tween20 for 10 minutes, and finally rinsed three times with sterile water. Seeds were allowed to germinate for 2 days at 22° C. in the dark on moist filter paper. Embryos were excised and cultured on MS medium (11) solidified with gelrite (3% w/v) and supplemented with 1 mg/l kinetin and 1 mg/l NAA in the dark at 22° C. Produced calli were subcultured to fresh plates in two to three weeks intervals. After four months of culture calli were transferred to L2-medium (12) solidified with gelrite (3% w/v) and supplemented with 2.5 mg/l 2,4-D and were subsequentially subcultured to fresh plates at one month intervals. Embryogenic callus cultures from isolated V. californicum embryos were induced by the following media: Basal media MS (11), R2M (13), L2 (12), modified MS medium (mMS, consisting of MS basic salts and vitamins, 146 mg/l glutamine, 200 mg/l casein hydrolysate) and AA (14) supplemented with different hormones (picloram, NAA, 2,4-D, dicamba) at three levels (2, 4 and 7 mg/l) all solidified with gelrite (3% w/v). The cultures were kept in the dark, at 25° C. and embryogenic calli were subcultured at one month intervals.
# Frequencies of embryos producing embryogenic calli and frequencies of regenerated green and albino plants were recorded. Oxidative browning percentages of embryos were calculated. Completely randomized designs (CRD) were used in the experiments. Each Petri-dish with 20 embryos was considered an experimental unit and each treatment contained five replicates. Data analyses with two treatment levels were carried out by t-test, and with more than two treatment levels by the ANOVA procedure. Multi-range comparisons were performed by the LSD test.
# [2] = tested on: suspension line B; test: Growth optimization of the suspension cell line B; format: cell-based, Veratrum californicum; details: AA medium, 4 mg/l
# Experimental: Growth of suspension line B on L2-medium with 2,4-D (2.5 mg/l) was further optimized. About 3 g (fw) of cells were transferred to an Erlenmeyer flask containing 50 ml liquid AA medium (with 2,4-D and NAA at levels of 2, 4 and 7 mg/l or without hormones), and incubated in the light (light intensity about 30-40 […] Osram cool white/Osram fluora, 1:1 on watt basis) on a rotary shaker (130 rpm) at 25° C. The volume of the liquid medium was added up to 100 ml after the second subculture. The suspensions were sub-cultured at three weeks intervals by replacing about half of the old culture with an equal volume of fresh medium.
# [3] = tested on: Veratrum californicum embryos; test: Embryogenic callus induction from mature embryos (% of embryogenesis); format: cell-based; details: medium 502; data from 5 replicates
# [4] = tested on: sheep; details: ewes consuming Veratrum during early pregnancy; cited from earlier work
# [5] = tested on: Veratrum californicum embryos; test: Phenolic exudation / oxidative browning during embryo culture; format: cell-based; details: mMS medium containing picloram
# Experimental: as §1, with “The cultures were kept in the dark, at 25° C. and embryogenic calli were subcultured at one month intervals.” left out
# Frequencies of embryos producing embryogenic calli and frequencies of regenerated green and albino plants were recorded. Oxidative browning percentages of embryos were calculated. […]
# [6] = tested on: Sonic hedgehog signal transduction; details: cited from earlier work
# [7] = tested on: suspension lines A, B and C; test: Cryopreservation of the cell suspension lines A, B and C; format: cell-based, Veratrum californicum; details: 5% (v/v), after osmotic dehydration
# Experimental: The suspension lines A, B and C were cryopreserved by using a Kryo10 device (Planer Biomed). The suspensions were subcultured 4 to 5 days prior to the start of the cryopreservation experiment. A dehydration procedure as follows was applied: I) Sugar alcohol concentration of the suspension was adjusted to 0.2 M by adding five times small aliquots of 4 M sorbitol during a period of 30 minutes. After sorbitol additions, the suspensions were incubated under normal growth conditions for 24 hours (in the dark, 25° C., on a rotary shaker (90 rpm)). II) Sugar alcohol concentration was adjusted to 0.4 M by 4 M sorbitol and incubations were carried out as in step I). The dehydrated suspensions were transferred to ice and DMSO was added to reach 5% (v/v) concentration. Cell:medium ratio was adjusted to 1:2 and suspensions were packed into ampulles. Protectant-treated suspensions were kept on ice for a period of 100 minutes. A freezing protocol as follows was applied: I) A rate of 10° C./min to reach 0° C. was followed by II) incubation at 0° C. for 20 minutes. The freezing was finalized by using III) a rate of 1° C./min to reach −40° C. and then IV) samples were immersed in liquid nitrogen. Thawing of cryopreserved samples was carried out by immersing the suspension ampulles straight from liquid nitrogen to a 40° C. water bath for 2 minutes. […] Cell division and growth of the cultures were monitored.
# [8] = tested on: Veratrum californicum plant suspension cell lines; test: Elicitation of steroid alkaloid production in plant suspension cell lines; format: cell-based
# Experimental: 100 μl 0.5% SDS solution and 50 μl 25% NH4OH was added to 100 mg FW frozen cell powder. After mixing 1 ml toluene was added and the solution was extracted for 10 min in an ultrasonic bath. Following centrifugation the organic layer was collected and the sample residue was twice re-extracted with another 1 ml toluene. The organic phases were combined and the solvent was evaporated to dryness. The residue was then quantitatively transferred to a GC vial and re-dissolved in 80 μl CH2Cl2. An aliquot was directly injected into the GC.
# GC separation was performed using an Agilent 6890 system and was monitored with an Agilent 5973 Network MS Quadropole. The selected ion mode function was applied to record the characteristic molecular ions (cyclopamine: 124, 396; jervine: 110, 124). Within a set of samples the response values for the specific ions were used to compare relative levels of alkaloids. A mixture of commercially available reference compounds (cyclopamine and jervine) was routinely analyzed for comparison of retention times and fragmentation.
# [9] = growth regulator 2 mg/l, average over mMS, R2M, AA
# [10] = growth regulator 2 mg/l, medium AA
# [11] = growth regulator 2 mg/l, medium R2M
# [12] = growth regulator 2 mg/l, medium mMS
# [13] = growth regulator 4 mg/l, average over mMS, R2M, AA
# [14] = growth regulator 4 mg/l, medium AA
# [15] = growth regulator 4 mg/l, medium R2M
# [16] = growth regulator 4 mg/l, medium mMS
# [17] = growth regulator 7 mg/l, average over mMS, R2M, AA
# [18] = growth regulator 7 mg/l, medium AA
# [19] = growth regulator 7 mg/l, medium R2M
# [20] = growth regulator 7 mg/l, medium mMS
# [21] = medium AA, data from 5 replicates
# [22] = medium MS, data from 5 replicates
# [23] = medium R2M, data from 5 replicates
# [24] = medium mMS, data from 5 replicates
structure (smiles),measurement,setting,value
"O=C(O)Cc1cccc2ccccc12 [NAA, 1-naphthaleneacetic acid]","% of embryogenesis, Average",[1]; average over the five media,67.70a %
same,"% of embryogenesis, Average",[1]; [9],59.35b %
same,% of embryogenesis,[1]; [10],48.95%
same,% of embryogenesis,[1]; [11],63.75%
same,% of embryogenesis,[1]; [12],65.35%
same,"% of embryogenesis, Average",[1]; [13],70.74a %
same,% of embryogenesis,[1]; [14],64.21%
same,% of embryogenesis,[1]; [15],74.32%
same,% of embryogenesis,[1]; [16],73.67%
same,"% of embryogenesis, Average",[1]; [17],72.15a %
same,% of embryogenesis,[1]; [18],68.06%
same,% of embryogenesis,[1]; [19],73.01%
same,% of embryogenesis,[1]; [20],75.37%
same,% of embryogenesis,[1]; [21],62.04%
same,% of embryogenesis,[1]; [22],62.62%
same,% of embryogenesis,[1]; [23],73.95%
same,% of embryogenesis,[1]; [24],74.93%
same,growth of the suspension line B,[2],improved the growth
same,% of embryogenesis,[3],64.98%
CC1=C2C(=O)[C@H]3[C@@H](CC=C4C[C@@H](O)CC[C@@]43C)[C@@H]2CC[C@]12O[C@@H]1C[C@H](C)CN[C@H]1[C@H]2C [jervine],teratogenicity,[4],responsible teratogens
"O=C(O)COc1ccc(Cl)cc1Cl [2,4-D]","% of embryogenesis, Average",[1]; average over the five media,52.33c %
same,% of embryogenesis,[1]; [21],43.43%
same,% of embryogenesis,[1]; [22],50.52%
same,% of embryogenesis,[1]; [23],58.85%
same,% of embryogenesis,[1]; [24],55.32%
same,growth of the suspension line B,[2],improved the growth
same,% of embryogenesis,[3],53.41%
"Nc1c(Cl)c(Cl)nc(C(=O)O)c1Cl [Picloram, picloram]",percentage of embryos producing phenolic exudates,[5],18.9%
same,"% of embryogenesis, Average",[1]; average over the five media,70.82a %
same,"% of embryogenesis, Average",[1]; [9],63.24B %
same,% of embryogenesis,[1]; [10],51.43%
same,% of embryogenesis,[1]; [11],68.53%
same,% of embryogenesis,[1]; [12],69.76%
same,"% of embryogenesis, Average",[1]; [13],72.96A %
same,% of embryogenesis,[1]; [14],62.59%
same,% of embryogenesis,[1]; [15],75.73%
same,% of embryogenesis,[1]; [16],80.57%
same,"% of embryogenesis, Average",[1]; [17],72.50A %
same,% of embryogenesis,[1]; [18],59.97%
same,% of embryogenesis,[1]; [19],76.07%
same,% of embryogenesis,[1]; [20],81.46%
same,% of embryogenesis,[1]; [21],59.75%
same,% of embryogenesis,[1]; [22],69.32%
same,% of embryogenesis,[1]; [23],75.40%
same,% of embryogenesis,[1]; [24],81.33%
same,% of embryogenesis,[3],68.32%
"COc1c(Cl)ccc(Cl)c1C(=O)O [Dicamba, dicamba]","% of embryogenesis, Average",[1]; average over the five media,55.44bc %
same,% of embryogenesis,[1]; [21],51.24%
same,% of embryogenesis,[1]; [22],50.90%
same,% of embryogenesis,[1]; [23],58.67%
same,% of embryogenesis,[1]; [24],60.79%
same,% of embryogenesis,[3],55.61%
CC1=C2C[C@H]3[C@@H](CC=C4C[C@@H](O)CC[C@@]43C)[C@@H]2CC[C@]12O[C@@H]1C[C@H](C)CN[C@H]1[C@H]2C [cyclopamine],effect on Sonic hedgehog signal transduction,[6],selectively blocks Sonic hedgehog signal transduction
same,teratogenicity,[4],responsible teratogens
C[S+](C)[O-] [DMSO],cryoprotectant effect,[7],sufficient as a cryoprotectant
"CC/C=C\CC1C(=O)CCC1CC(=O)OC (centres unmarked) [methyl-jasmonate, methyl jasmonate]",production of cyclopamine and jervine upon elicitation,[8],showed the production of cyclopamine and jervine
